Like-named read-outs stand apart in the source and are kept apart here.
How the values were obtained:
[1] = target: T1, Peroxisome proliferator-activated receptor γ (Homo sapiens, UniProt P37231); assay: cell-based; details: for EC10, PPARγ (M): 10% of maximum effect of rosiglitazone; for EC10, linear transformed / EC10, linear / logEC10: PPARγ bioassay, dosing range all; for EC10, linear: linear model; for logEC10: log-logistic model; for SR-ScorePPARγ: SR-Score, sigma k=1, x=5; for EC10, PPARγ: effect; for log(1/EC10) PPARγ: input of the ToxPi score, values up to 1.00; for Emax: read-out: Emax%PPARγ
T1 sequence (P37231 238-505 limits assumed): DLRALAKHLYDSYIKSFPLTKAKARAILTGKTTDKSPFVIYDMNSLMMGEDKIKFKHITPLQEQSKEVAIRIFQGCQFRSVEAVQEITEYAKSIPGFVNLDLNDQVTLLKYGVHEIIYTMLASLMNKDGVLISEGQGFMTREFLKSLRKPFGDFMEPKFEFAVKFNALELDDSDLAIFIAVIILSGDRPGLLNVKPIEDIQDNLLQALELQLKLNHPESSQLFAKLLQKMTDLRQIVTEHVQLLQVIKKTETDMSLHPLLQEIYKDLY
Method in brief: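 ERα-UAS-bla GripTite and PPARγ-UAS-bla reporter cells were seeded in assay medium with 2% charcoal-stripped FBS and held 24 h at 37 °C before dosing. Viability came from IncuCyte confluency before and after exposure. EC10 used only concentrations below IC10; Emax% is the log-logistic curve maximum relative to the reference chemical.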

[2] = tested on: MCF7 (ARE/MMP); details: for IC10, linear transformed / IC10, linear / logIC10: dosing range all; for Toxic ratio (TR) TRARE: ARE readout; for IC10, MCF7, ARE: MCF7, ARE readout; for IC10, MCF7, MMP: MCF7, MMP readout
Method in brief: (§1)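 Viability is derived from microscopy-based confluency, compared before and after 24 h of chemical exposure against cell-free wells. Each bisphenol alternative is tested in at least three independent experiments. Effect concentrations (EC10; ECIR1.5 for ARE) use only concentrations under the IC10.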

[3] = tested on: H4IIe (AhR CALUX); details: for IC10, linear transformed / IC10, linear / logIC10: Bioassay AhR, dosing range all; for IC10, linear transformed / IC10, linear / logIC10 / IC10, H4IIe, AhR: cytotoxicity; for IC10, linear: linear model fit; for logIC10: log-logistic model fit; for Toxic ratio (TR) TRAhR: against baseline cytotoxicity; for IC10, H4IIe, AhR: H4IIe (AhR assay cells)
Method in brief: as §1

[4] = tested on: HEK293H (PPARγ); details: for IC10, linear transformed / IC10, linear / logIC10: PPARγ bioassay cytotoxicity, dosing range all; for IC10, linear: linear model; for logIC10: log-logistic model; for Toxic ratio (TR) TRPPARγ: against baseline cytotoxicity; for IC10, HEK293, PPARγ: cytotoxicity, HEK293 (PPARγ assay cells)
Method in brief: as §1

[5] = tested on: HEK293T (ERα); details: for IC10, linear transformed / IC10, linear / logIC10: Bioassay ERα; for IC10, linear transformed / IC10, linear / logIC10 / IC10, HEK293, ERα: cytotoxicity; for IC10, linear: linear model fit; for logIC10: log-logistic model fit; for Toxic ratio (TR) TRERα: against baseline cytotoxicity; for IC10, HEK293, ERα: HEK293 (ERα assay cells)
Method in brief: as §1

[6] = Bioassay ARE, cytotoxicity, linear model fit
[7] = Bioassay ARE, cytotoxicity, log-logistic model fit
[8] = MMP bioassay cytotoxicity, linear model
[9] = MMP bioassay cytotoxicity, log-logistic model

| SMILES | EC10, linear [1] | logEC10 [1] | IC10, linear transformed ([2]; Bioassay ARE, cytotoxicity) | IC10, linear [2, 6] | logIC10 [2, 7] | IC10, linear transformed ([2]; MMP bioassay cytotoxicity) | IC10, linear [2, 8] | logIC10 [2, 9] | IC10, MCF7, ARE ([2]; cytotoxicity) [µM] | IC10, MCF7, MMP ([2]; cytotoxicity) [µM] | IC10, linear transformed [3] | IC10, linear [3] | logIC10 [3] | IC10, H4IIe, AhR [3] [µM] | IC10, linear transformed [4] | IC10, linear [4] | logIC10 [4] | IC10, HEK293, PPARγ [4] [µM] | IC10, linear transformed ([5]; dosing range all) | IC10, HEK293, ERα [5] [µM] | also measured |
| --- | --- | --- | --- | --- | --- | --- | --- | --- | --- | --- | --- | --- | --- | --- | --- | --- | --- | --- | --- | --- | --- |
| O=C(OCc1ccccc1)c1ccc(O)cc1 [BzPB, Benzyl 4-hydroxybenzoate] | 2.87E-06 | -5.69 | 8.95E-05 | 1.23E-04 | -4.05 | 2.97E-04 | 1.94E-04 | -3.53 | 89.5 | 297 | 2.87E-04 | 1.74E-04 | -3.54 | 174 | 3.90E-06 | 3.41E-05 | -4.33 | 46.8 | 1.15E-05 | 42.1 | EC10, PPARγ (M) [1]: 2.04 × 10^–6 M; EC10, linear transformed [1]: 2.04E-06; SR-ScorePPARγ [1]: 1.00; Specificity ratio (SRbaseline) SRPPARγ ([1]; against baseline cytotoxicity): 8.14; Specificity ratio (SRcytotoxicity) SRPPARγ ([1]; against experimental cytotoxicity): 22.95; EC10, PPARγ [1]: 2.04 µM; log(1/EC10) PPARγ [1]: 0.80; Emax [1]: 16%; Toxic ratio (TR) TRARE ([2]; against baseline cytotoxicity): 0.38; Toxic ratio (TR) TRMMP ([2]; against baseline cytotoxicity, MMP readout): 0.11; Toxic ratio (TR) TRAhR [3]: 0.19; Toxic ratio (TR) TRPPARγ [4]: 0.35; IC10, linear ([5]; dosing range all): 4.80E-05; logIC10 ([5]; dosing range all): -4.38; Toxic ratio (TR) TRERα [5]: 0.39 |
| CC(c1ccc(O)cc1)c1ccc(O)cc1 [BPE, 4,4′-Ethylidenbisphenol] | no effect | no effect | 7.96E-05 | 1.10E-04 | -4.10 | 7.86E-05 | 8.57E-05 | -4.10 | 79.6 | 78.6 | 1.06E-04 | 8.43E-05 | -3.97 | 84.3 | 5.10E-06 | 6.46E-05 | -4.15 | 70.8 | 3.62E-05 | 67.4 | IC10, linear ([5]; dosing range all): 6.74E-05; logIC10 ([5]; dosing range all): -4.23 |
| C=CCOc1ccc(S(=O)(=O)c2ccc(O)cc2)cc1 [BPS-MAE, 4-[[4-(Allyloxy)phenyl]sulfonyl]phenol] | 6.41E-07 | -6.25 | 3.86E-04 | 4.93E-04 | -3.41 | 8.44E-04 | 1.02E-03 | -3.07 | 386 | 844 | 8.61E-05 | 8.24E-05 | -4.07 | 82.4 | 1.96E-05 | 9.34E-05 | -4.24 | 57.5 | 6.22E-05 | 244 | EC10, PPARγ (M) [1]: 5.57 × 10^–7 M; EC10, linear transformed [1]: 5.57E-07; SR-ScorePPARγ [1]: 1.00; EC10, PPARγ [1]: 0.557 µM; log(1/EC10) PPARγ [1]: 0.88; Emax [1]: 22%; IC10, linear ([5]; dosing range all): 2.44E-04; logIC10 ([5]; dosing range all): -3.85 |
| CC(c1ccccc1)(c1ccc(O)cc1)c1ccc(O)cc1 [BPAP, 4,4'-(1-Phenylethylidene)bisphenol] | no effect | no effect | 3.14E-05 | 2.44E-05 | -4.50 | 3.48E-05 | 2.54E-05 | -4.46 | 31.4 | 34.8 | 9.59E-05 | no cytotoxicity | -4.02 | 95.9 | 3.60E-06 | no cytotoxicity | -4.99 | 10.2 | 1.11E-05 | 11.8 | IC10, linear ([5]; dosing range all): no cytotoxicity; logIC10 ([5]; dosing range all): -4.93 |
| COC(=O)C(c1ccc(O)cc1)c1ccc(O)cc1 [Bz, Methyl bis(4-hydroxyphenyl)acetate] | no effect | no effect | 4.96E-04 | 3.89E-04 | -3.30 | 3.45E-04 | 3.44E-04 | -3.46 | 496 | – | 1.41E-04 | 1.09E-04 | -3.85 | 109 | 1.09E-04 | 3.71E-04 | -3.55 | 282 | – | 1010 | Toxic ratio (TR) TRARE ([2]; against baseline cytotoxicity): 0.70; Toxic ratio (TR) TRAhR [3]: 3.18; Toxic ratio (TR) TRPPARγ [4]: 0.92; IC10, linear transformed ([5]; dosing range high): 1.18E-04; IC10, linear ([5]; dosing range high): 1.01E-03; logIC10 ([5]; dosing range high): -3.63; IC10, linear ([5]; dosing range low): no cytotoxicity; logIC10 ([5]; dosing range low): no cytotoxicity; Toxic ratio (TR) TRERα [5]: 0.26 |

From paper PMC12392461, “Beyond Estrogenicity: A Comparative Assessment of Bisphenol A and Its Alternatives in In Vitro Assays Questions Safety of Replacements” (Environmental Science & Technology, 2025)
